These results are taken from ChEMBL document CHEMBL1201862, “PubChem BioAssay data set” (2004).

Test in all cases: inhibition of tumour cell growth, NCI panel, 48 h
The subject of assay [1] is 786-0.
In assay [2] the test system is A549.
The test system of assay [3] is COLO 205.
The subject of assay [4] is EKVX.
The subject of assay [5] is HCT-116.
The subject of assay [6] is HCT-15.
Assay [7] concerns HT-29.
For assay [8], the system named is K562.
For assay [9], the system named is LOX IMVI.
Assay [10] concerns NCI-H460.
The test system of assay [11] is OVCAR-4.
The test system of assay [12] is SF-539.
Assay [13] concerns SK-OV-3.
The test system of assay [14] is UO-31.
Assay [15] has as its system SF-295.
The subject of assay [16] is OVCAR-3.

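Values below derive from 48-hour exposures of cells grown in 96-well plates, with endpoints linearly interpolated between the two concentrations bracketing the appropriate inhibition level. Abbreviation: GI50, concentration required for 50% inhibition of growth.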 Calls of active or inactive are those of the source. Cut-off read from the data, not from the text of the source: active = GI50 up to about 1.1 µM and inactive = higher. Where only a bound is given, the exact number is not on record here.

With `Cc1cccc2c1Oc1cc(Cl)ccc1C2NC(=O)CN(C)C` (stereo not given), the GI50 in assay [1] is 14.5 µM (inactive); in assay [2], > 100 µM (inactive); in assay [3] it was 33.5 µM (inactive); in [4], 26.5 µM (inactive); in assay [5] it was 27.5 µM (inactive); in assay [6], 45.2 µM. The GI50 in assay [7] was 36.6 µM (inactive); in [8], 36 µM (inactive); in [9], 42.6 µM (inactive); in assay [10], 33.8 µM (inactive); in assay [11], 53.5 µM (inactive); in assay [12], 80.5 µM (inactive). In addition, the GI50 in assay [13] was 73.8 µM (inactive); in assay [14] it was 28.8 µM (inactive).
`C/C=C(\C)c1cc(O)c(C)c2c1Oc1cc(O)c(Cl)c(C)c1C(=O)O2`: the GI50 was 25.6 µM (inactive) in assay [1]; 31.6 µM (inactive) in assay [2]; 25.3 µM (inactive) in assay [3]; 26.8 µM (inactive) in [4]; > 10 µM (inactive) in assay [5]; 19.2 µM (inactive) in assay [7]. The GI50 in [9] was 17.6 µM (inactive); in [10], 20 µM (inactive); in assay [11] it was 16.7 µM (inactive); in assay [15], 16.7 µM (inactive); in assay [12] it was 20 µM (inactive); in assay [14], 13.5 µM (inactive).
Turning to `CC(C)N(C(=O)C12C3C4C5(C#N)C3C1(C#N)C5C42C#N)C(C)C` (stereo not given), the GI50 in assay [1], in [2], in assay [3], in assay [4], in assay [5] and in assay [7] was > 100 µM (inactive) in each case. In addition, the GI50 in [8], in assay [9], in assay [10], in [16], in assay [11] and in assay [15] was > 100 µM (inactive) throughout. Also, the GI50 in [12], in assay [13] and in [14] was > 100 µM (inactive) each time.
With `C[P+]1(c2ccccc2)CCCCC1`, the GI50 in assay [1] is > 100 µM (inactive); in assay [2] it was > 100 µM (inactive); in assay [3], > 100 µM (inactive); in assay [4], > 100 µM (inactive); in [6] it was > 100 µM; in [7], > 100 µM (inactive). Besides, the GI50 in assay [8], in assay [9], in assay [10], in assay [16], in assay [11] and in assay [15] was > 100 µM (inactive) each time. Besides, the GI50 in assay [12], in [13] and in assay [14] was > 100 µM (inactive) in each case.
With `CCN1CCC(O)(/C=C/c2ccc(Cl)cc2)C(C(=O)/C=C/c2ccc(Cl)cc2)C1` (stereo not given), the GI50 in assay [1] is 20 µM (inactive); in [2] it was 25.4 µM (inactive); in [3], 71.4 µM (inactive); in assay [4], 43.9 µM (inactive); in assay [5] it was 3.63 µM (inactive); in [6], 21.7 µM. The GI50 in assay [7] is 18.6 µM (inactive); in [8] it was 28.1 µM (inactive); in [9], 16.2 µM (inactive); in assay [10] it was 28 µM (inactive); in assay [16], 18.9 µM (inactive); in assay [11], 29.6 µM (inactive). Besides, the figures for the GI50 in [15], in assay [13] and in [14] were 20.6 µM (inactive), 23 µM (inactive) and 31.3 µM (inactive), respectively.
In the case of `C=CCCC12CCCC(=O)C1Sc1ccc3ccccc3c12` (stereo not given), the GI50 is 17.9 µM (inactive) in assay [1]; 10.2 µM (inactive) in assay [2]; 12.9 µM (inactive) in [3]; 21.6 µM (inactive) in [4]; 11.1 µM in assay [6]; 20.1 µM (inactive) in assay [7]. In addition, the GI50 in [8] was 16.8 µM (inactive); in assay [9] it was 13.6 µM (inactive); in assay [16], 13.6 µM (inactive); in assay [11], 28.6 µM (inactive); in [15], 19.4 µM (inactive); in assay [12], 15.1 µM (inactive). Also, the GI50 is 21.1 µM (inactive) in assay [13] and 16.8 µM (inactive) in [14].
